Test results taken from patent US11884956B2, “Methods for detecting mycobacteria with solvatochromic dye conjugates” (priority 2016, dated 2024).

Columns and labels:
[1] = system: Mycobacterium marinum (Mm); assay: No-wash imaging of M. marinum by DMN-Tre and 6-FITre; assay type: cell-based; settings: 100 μM, 6 hours, imaged without washing; FIG. 9A
[2] = system: Mycobacterium smegmatis (Msmeg); assay: No-wash imaging of Msmeg by DMN-Tre and 6-FITre; assay type: cell-based; settings: 100 μM, 1 hour, imaged without washing; FIG. 9A
[3] = system: Corynebacterium glutamicum (Cg); assay: No-wash imaging of Cg by DMN-Tre and 6-FITre; assay type: cell-based
[4] = system: Mtb cells in TB-positive patient sputum samples; assay: Microscopy analysis of Mtb in sputum samples / Auramine vs DMN-Tre smear test; assay type: cell-based, Mycobacterium tuberculosis; settings: for detection of Mtb cells in split sputum samples: DMN-Tre 30 minutes or Auramine O standard kit protocol, FIGS. 17B-D
[5] = system: Mtb cells; assay: Labeling of drug-treated Mtb; assay type: cell-based, Mycobacterium tuberculosis; settings: drug cocktail 3 hours before staining; FIGS. 15C and 15D
[6] = system: Msmeg; assay: Flow cytometry of metabolically labeled Msmeg; assay type: cell-based, Mycobacterium smegmatis
[7] = system: Mtb (H37Rv); assay: Axenic MTB culture time-course experiment; assay type: cell-based, Mycobacterium tuberculosis
[8] = system: Bacillus subtilis (Bs); assay: Labeling of non-mycomembrane bearing bacteria (Bs); assay type: cell-based; settings: 100 μM, 37° C., 2 h; FIG. 11A
Method: (§1) Lm, Bs, Ec, and Sa were grown from single colonies at 37° C. overnight. The bacteria were diluted to an OD600 of 0.4. To 1 mL aliquots of these bacteria, 10 μL of 10 mM DMN-Tre was added to reach a final concentration of 100 μM. The cells were then incubated at 37° C. for 2 h. Aliquots were taken and the cells were imaged under a coverslip. As controls, cells from the same OD600=0.4 culture, without the addition of DMN-Tre, were also imaged.

[9] = system: Msmeg trehalose transporter mutants; assay type: cell-based, Mycobacterium smegmatis; settings: panel of trehalose transporter mutants
[10] = system: Msmeg expressing mCherry; assay: Selective labeling of Msmeg in the presence of other bacterial species; assay type: cell-based, Mycobacterium smegmatis; settings: 1:10 mycobacteria/other bacteria (Bs, Ec, Lm, Sa), Hoechst dye, one hour, no wash; FIG. 11B
Method: Bacteria (Lm, Bs, Ec, and Sa) were grown overnight with shaking in media as noted above. The bacteria were diluted to OD600=0.5, then 500 μL of each culture were mixed together to create 2 mL of mixed bacteria. One mL of Msmeg expressing mCherry was grown from a single colony overnight to OD600 of 0.5. Both cultures were pelleted by centrifugation (3 min, 3,300×g) and resuspended in an identical volume of LB medium. To 540 μL of mix, 60 μL of Msmeg was added. Lastly, this final mixture of bacteria containing Msmeg and the four other non-mycomembrane bearing bacterial species was split into two 300 μL aliquots. To each group, 0.3 μL of 2 mg/mL Hoechst DNA stain (Thermo Fisher Scientific, 62249) was added to stain all the bacteria. To one of the two aliquots, 3 μL of 10 mM DMN-Tre were added, while no DMN-Tre was added to the other portion. The two aliquots were incubated with shaking at 37° C. for 1 h before a sample was taken out and imaged without washing.

[11] = Absorbance and fluorescence measurements of DMN-Tre; assay type: physicochemical
Method: One μL of 10 mM DMN-Tre in H2O was added to 1 mL of mixtures of dioxane and water at different ratios. Absorbance spectra were recorded on a Varian Cary 50 UV-Visible spectrophotometer. Fluorescence spectra were recorded on a Photon Technology International Quanta Master 4 L-format scanning spectrofluorometer equipped with an LPS-220B 75-W xenon lamp and power supply, an A-1010B lamp housing with an integrated igniter, a switchable 814 photon counting/analog photomultiplier detection unit, and an MD5020 motor driver. Measurements were made in 1 cm×0.4 cm quartz cuvettes with a total sample volume of 1 mL.

[12] = Stability of DMN-Tre; assay type: physicochemical; settings: bench or shipping containers at room temperature; aqueous solution at 37° C.
[13] = system: Escherichia coli (Ec); assay: Labeling of non-mycomembrane bearing bacteria (Ec); assay type: cell-based; settings: 100 μM, 37° C., 2 h; FIG. 11A
Method: as §1

[14] = system: Msmeg; assay: No-wash labeling of Msmeg over time; assay type: cell-based, Mycobacterium smegmatis; settings: FIG. 10
Method: (§2) Msmeg or Cg cells were grown to an OD600 of 0.5 from a single colony as above. To 200 μL of culture was added 2 μL of 10 mM DMN-Tre in H2O. Aliquots were taken from this culture at the indicated time points, immediately placed under a coverslip, and imaged.

[15] = system: Cg; assay: No-wash labeling of Cg over time; assay type: cell-based, Corynebacterium glutamicum; settings: FIG. 10
Method: as §2

[16] = system: Msmeg deficient in Ag85A; assay: DMN-Tre labeling of Msmeg deficient in Ag85A; assay type: cell-based, Mycobacterium smegmatis; settings: FIG. 12F
[17] = system: M. smegmatis; assay: Trehalose competition of DMN-Tre labeling in M. smegmatis; assay type: cell-based, Mycobacterium smegmatis; settings: 1 hour, FIG. 12D
Method: Then, the bacteria were divided into 100 μL aliquots. To these aliquots was added 1 μL of 10 mM DMN-Tre and 1 μL of 0, 10 or 100 mM trehalose in water.

[18] = system: Staphylococcus aureus (Sa); assay: Labeling of non-mycomembrane bearing bacteria (Sa); assay type: cell-based; settings: 100 μM, 37° C., 2 h; FIG. 11A
Method: as §1

[19] = system: Listeria monocytogenes (Lm); assay: Labeling of non-mycomembrane bearing bacteria (Lm); assay type: cell-based; settings: 100 μM, 37° C., 2 h; FIG. 11A
Method: as §1

[20] = system: heat-killed Msmeg cells; assay: DMN-Tre labeling of heat-killed Msmeg; settings: FIGS. 13A and 13B
[21] = system: wild-type Msmeg; assay: DMN-Tre labeling after isoniazid treatment, wild-type; assay type: cell-based, Mycobacterium smegmatis; settings: FIG. 14C
[22] = system: ΔkatG mutant of Msmeg; assay type: cell-based, Mycobacterium smegmatis; settings: FIG. 14C
[23] = 100 μM, 2 hours, imaged without washing, FIG. 9A
[24] = 100 μM, exponential growth phase, first time point

SMILES: O=C(O)c1cc(NC(=S)NC[C@H]2O[C@H](O[C@H]3O[C@H](CO)[C@@H](O)[C@H](O)[C@H]3O)[C@H](O)[C@@H](O)[C@@H]2O)ccc1-c1c2ccc(=O)cc-2oc2cc(O)ccc12 [6-FITre, 6-fluorescein-trehalose, reference compound]
- background fluorescence of free probe in surrounding solution [1]: obscured by fluorescence of the probe in the surrounding solution
- background fluorescence of free probe in surrounding solution [2]: obscured by fluorescence of the probe in the surrounding solution
- background fluorescence of free probe in surrounding solution [3, 23]: obscured by fluorescence of the probe in the surrounding solution

SMILES: CN(C)c1ccc(C(=N)c2ccc(N(C)C)cc2)cc1.Cl [Auramine O, reference compound]
- detection of Mtb cells in split sputum samples [4]: detected
- labeling after prior drug cocktail treatment [5]: unaffected

SMILES: COC1OC(CN2C(=O)c3cccc4c(N(C)C)ccc(c34)C2=O)C(O)C(O)C1O (stereo not drawn) [DMN-Glc, DMN-glucose]
- labeling of Msmeg ([6]; FIG. 12C): did not label Msmeg

SMILES: CN(C)c1ccc2c3c(cccc13)C(=O)N(C[C@H]1O[C@H](O[C@H]3O[C@H](CO)[C@@H](O)[C@H](O)[C@H]3O)[C@H](O)[C@@H](O)[C@@H]1O)C2=O [DMN-Tre, 4-N,N-dimethylamino-1,8-naphthalimide-conjugated trehalose]
- time to detection of mycobacteria in TB patient sputum samples [4]: under an hour
- fluorescent Mtb cells in sputum samples ([4]; 16 treatment-naïve TB-positive patients, 2-hour incubation, FIGS. 17A and D): readily visible in all samples
- detection of Mtb cells in split sputum samples [4]: detected
- Mtb cells detected in sputum compared with Auramine O ([4]; visibly stained cells over 8 fields of view per sample, 16 sputum samples, FIG. 17C): performed similarly to Auramine O
- labeling of liquid cultures ([7]; FIG. 15A): visibly labeled
- cells labeled ([7]; liquid cultures, within 30 minutes, FIG. 15B): > 65%
- labeling over time ([7]; overnight (˜16 h), FIG. 15B): continued to intensify overnight
- fluorescence labeling without washing [8]: none of the non-mycobacterial strains show any detectable fluorescence labeling
- fluorescence signal of labeled cells by filter set ([6]; 100 μM DMN-Tre, 1 h, excited at wavelengths closer to 400 nm (405 nm vs 488 nm excitation), FIG. 9B): higher fluorescence signal over control samples
- time to significant fluorescence over background ([6]; flow cytometry, FIG. 12A): ≤ 20 min
- cells labeled ([6]; within 30 minutes, flow cytometry, FIG. 12B): > 70%
- DMN-Tre incorporation versus wild-type [9]: comparable to wild-type
- labeling after prior drug cocktail treatment [5]: inhibited
- background fluorescence of free probe in surrounding solution [1]: no discernible background fluorescence
- fluorescence labeling, no-wash imaging [1]: Bright fluorescence labeling
- labeling in mixed bacterial culture [10]: Bright, specific, DMN-Tre labeling of only Msmeg cells
- enhancement in fluorescence intensity when dissolved in organic solvent versus water [11]: ~700 fold
- stability [12]: very stable on the bench or in shipping containers for weeks at room temperature, and even in aqueous solution at 37 °C
- fluorescence labeling without washing [13]: none of the non-mycobacterial strains show any detectable fluorescence labeling
- background fluorescence of free probe in surrounding solution [2]: no discernible background fluorescence
- fluorescence labeling, no-wash imaging [2]: Bright fluorescence labeling
- time point at which labeling was already visible [14, 24]: ≤ 5 min
- time by which cells were uniformly labeled [14]: ≤ 1 h
- labeling pattern at earliest time point ([14]; earliest time point): fluorescence only at the polar regions
- time point at which labeling was already visible [15, 24]: ≤ 3 min
- labeling pattern at earliest time point ([15]; earliest time point): even cell surface labeling
- DMN-Tre labeling versus wild-type [16]: reduced labeling compared to wild-type
- DMN-Tre labeling in the presence of excess trehalose [17]: reduced
- fluorescence labeling without washing [18]: none of the non-mycobacterial strains show any detectable fluorescence labeling
- fluorescence labeling without washing [19]: none of the non-mycobacterial strains show any detectable fluorescence labeling
- labeling after heat killing [20]: abrogated
- background fluorescence of free probe in surrounding solution [3, 23]: no discernible background fluorescence
- fluorescence labeling, no-wash imaging [3, 23]: Bright fluorescence labeling
- fluorescence labeling in the selectivity experiment ([3]; same experiment as the non-mycobacterial strains, FIG. 11A): labeled brightly

SMILES: NNC(=O)c1ccncc1 [isoniazid]
- effect of isoniazid treatment on DMN-Tre labeling [21]: not wild-type Msmeg, was unaffected
- effect of isoniazid treatment on DMN-Tre labeling [22]: unaffected
